Measurements: ChEMBL document CHEMBL3508140 (2016)

Key:
[1] = Mean plasma clearance of epirubicin following intravenous epirubicin at 60 mg.m-2 dose in cancer patients; assay type: ADME, organism-based; conditions: human, read-out: CLp (converted)
[2] = Cumulative biliary excretion of epirubicin and its metabolites following epirubicin at 50 mg.m-2 dose in cancer patients; assay type: ADME, organism-based, Bile; conditions: human, in vivo; at 50 mg/m2
[3] = Volume of distribution as steady state of epirubicin following intravenous epirubicin at 40-135 mg.m-2 dose in cancer patients; assay type: ADME, organism-based, Plasma; conditions: human, in vivo
[4] = Plasma clearance of epirubicin following intravenous epirubicin at 40-60 mg.m-2 dose in cancer patients; assay type: ADME, organism-based; conditions: human, in vivo
[5] = AUC values (0-48 h) of epirubicin in plasma following single intravenous epirubicin at 10 mg.Kg-1 dose in female mouse bearing colon tumor; assay type: ADME, organism-based, BALB/c; conditions: in vivo
[6] = Volume of distribution at steady state following intravenous epirubicin at 150 mg.m-2 dose in patients with advanced cancer; assay type: ADME, organism-based; conditions: human, plasma, read-out: Vss
[7] = Recovery of epirubicin following intravenous epirubicin at 4 mg.Kg-1 dose in rat; assay type: ADME, organism-based, SD, Plasma; conditions: in vivo
[8] = Recovery of epirubicin following intravenous epirubicin at 1.5 mg.Kg-1 dose in man; assay type: ADME, organism-based, Plasma; conditions: human, in vivo
[9] = Plasma clearance of epirubicin following intravenous epirubicin at 60 mg.m-2 dose in cancer patients; assay type: ADME, organism-based; conditions: human, in vivo
[10] = Plasma clearance of epirubicin following intravenous epirubicin at 25-35 mg.m-2 dose in cancer patients; assay type: ADME, organism-based; conditions: human, in vivo
[11] = Terminal elimination of metabolite of epirubicin following intravenous epirubicin at 40-60 mg.m-2 dose in cancer patients; assay type: ADME, organism-based, Plasma; conditions: human, in vivo
[12] = Recovery of epirubicin following intraperitoneal epirubicin at 4 mg.Kg-1 dose in mouse; assay type: ADME, organism-based, CD-1, Plasma; conditions: in vivo, ip
[13] = Volume of distribution of epirubicin following intrahepatic epirubicin emulsion at 1 mg.Kg-1 dose in rabbit; assay type: ADME, organism-based, Oryctolagus cuniculus; conditions: both, New Zealand White, blood
[14] = Cumulative urinary excretion of epirubicin and its metabolites following epirubicin at 50 mg.m-2 dose in cancer patients; assay type: ADME, organism-based, Urine; conditions: human, in vivo; at 50 mg/m2
[15] = AUC of epirubicin following intravenous epirubicin solution at 1 mg.Kg-1 dose in rabbit; assay type: ADME, organism-based, Oryctolagus cuniculus; conditions: both, New Zealand White, blood
[16] = AUC of epirubicin following intravenous epirubicin emulsion at 1 mg.Kg-1 dose in rabbit; assay type: ADME, organism-based, Oryctolagus cuniculus; conditions: both, New Zealand White, blood
[17] = Plasma clearance of epirubicin following intravenous epirubicin at 30-90 mg.m-2 dose in cancer patients; assay type: ADME, organism-based; conditions: human, in vivo
[18] = Terminal half-life of epirubicin following intravenous epirubicin emulsion at 1 mg.Kg-1 dose in rabbit; assay type: ADME, organism-based, Oryctolagus cuniculus; conditions: both, New Zealand White, blood
[19] = Terminal half-life of epirubicin following intravenous epirubicin at 3 mg.Kg-1 dose in rabbit; assay type: ADME, organism-based, Oryctolagus cuniculus; conditions: both, New Zealand White, plasma
[20] = Urinary excretion of epirubicin following epirubicin at 60 mg.m-2 dose in cancer patients; assay type: ADME, organism-based; conditions: human, urine, at 60 mg/m2, read-out: Compound recovery
[21] = Initial phase half-life of epirubicin following intravenous epirubicin at 90-150 mg.m-2 dose in cancer patients; assay type: ADME, organism-based, Plasma; conditions: human, in vivo
[22] = Urinary elimination of 4'-epiadriamycin following intravenous bolus 4'-epiadriamycin at 10 mg.Kg-1 dose in rat; assay type: ADME, organism-based; conditions: SD, urine, read-out: Compound recovery
[23] = Volume of distribution as steady state of epirubicin following intravenous epirubicin at 25-35 mg.m-2 dose in cancer patients; assay type: ADME, organism-based, Plasma; conditions: human, in vivo
[24] = Biliary excretion of epirubicin following epirubicin at 50 mg.m-2 dose in cancer patients; assay type: ADME, organism-based; conditions: human, bile, at 50 mg/m2, read-out: Compound recovery
[25] = Volume of distribution of epirubicin following intravenous epirubicin at 3 mg.Kg-1 dose in rabbit; assay type: ADME, organism-based, Oryctolagus cuniculus; conditions: both, New Zealand White, plasma
[26] = Volume of distribution as steady state of epirubicin following intravenous epirubicin at 60-90 mg.m-2 dose in cancer patients; assay type: ADME, organism-based, Plasma; conditions: human, in vivo
[27] = Half-life of terminal elimination phase of epirubicin following intravenous epirubicin at 20 mg.m-2 dose in cancer patients; assay type: ADME, organism-based; conditions: human, plasma

Structure (SMILES): COc1cccc2c1C(=O)c1c(O)c3c(c(O)c1C2=O)C[C@@](O)(C(=O)CO)C[C@@H]3O[C@H]1C[C@H](N)[C@@H](O)[C@H](C)O1.Cl [EPIRUBICIN HYDROCHLORIDE]
- clearance [1]: 1250 mL/min
- Radiolabel recovery [2]: 34.9%
- Vss [3]: 836 L.m-2
- CLp [4]: 50.1 L.h-1.m-2
- AUC [5]: 179 nmol·min/mL
- Vd [6]: 21 L/kg
- Compound recovery [7]: 56 10^-9M
- Compound recovery [8]: 46 10^-9M
- CLp [9]: 43.1 L.h-1.m-2
- CLp [10]: 41.5 L.h-1.m-2
- t1/2 [11]: 31.5 h
- Compound recovery [12]: 49 10^-9M
- Vd [13]: 137 L/kg
- Radiolabel recovery [14]: 10.5%
- AUC [15]: 180 ng·h/mL
- AUC [16]: 134 ng·h/mL
- CLp [17]: 48 L.h-1.m-2
- half-life [18]: 37.7 min
- half-life [19]: 1280 min
- dose excreted at 168 h [20]: 6.4%
- t1/2 [21]: 10 min
- dose excreted [22]: 4.83%
- Vss [23]: 925 L.m-2
- dose excreted at 96 h [24]: 21.9%
- Vd [25]: 587 L/kg
- Vss [26]: 1844 L.m-2
- half-life [27]: 834 min
